According to US12448363B2, “Kinase inhibitors” (Vidya Therapeutics, Inc., priority 2020, dated 2025):

Experiments:
[1] = system: BTK Activity in RAMOS B Cells; test: Assay to determine BTK activity in RAMOS B cells (anti-IgM, FLIPR Calcium 6); assay type: cell-based; conditions: Homo sapiens, Ramos, EC80 anti-IgM, FLIPR calcium read
Experimental: On the day before assay, Ramos B cells were plated in plating medium (RPMI1640 medium containing 1% FBS and 1× pencillin-streptomycin). On the day of the assay, 2× dye solution was prepared following the manual of the FLIRP Calcium 6 Assay Kit: Dilute the dye with assay buffer (20 mM HEPES in 1×HBSS, pH7.4); Add probenecid to the final concentration of 5 mM; vortex vigorously for 1-2 minutes. Cells were collected by centrifuging, and the pellet was resuspended in plating medium. After counting, cells were resuspended at a density of 3×10^6/ml in plating medium. Equal volume of 2× dye solution was added to the cell suspension. Cells were then plated at 20 μl/well into a 384-well poly-D-lysine coated plate. Plate was centrifuged at 1000 rpm for 3 minutes and then incubated at 37° C. for 2 hours followed by an additional 15-minute incubation at 25° C. Compounds were prepared at 3× concentration in dilution buffer (20 mM HEPES and 0.1% BSA in 1×HBSS, pH 7.4). Serially diluted compound was transferred from source plate to a 384-well compound plate by using an Echo 550 (Labcyte). 20 μl/well compound dilution buffer was added to the compound plate and mixed on plate shaker for 2 mins. 4×EC80 of Anti-IgM (Jackson ImmunoResearch) was prepared in dilution buffer and 20 μl/well was added to a new 384-well compound plate. After 60 mins of incubation at 25° C. in the dark; cell plate, compound plate containing 4×EC80 of anti-IgM and FLIPR tips were placed into FLIPR (Molecular Devices). 10 ul/well of 4×EC80 anti-IgM was transferred to the cell plate by FLIPR. Plates were read for 160 sec with 1 sec interval.
With respect to Ramos activity, Table 9 lists activity as follows: • “A” denotes an IC50 of less than 10 nM; • “B” denotes an IC50 of from 10 nM to less than 100 nM; and • “C” denotes and IC50 of 100 nM or more.

BTK [2] = biological target: T1, BTK (Homo sapiens, UniProt Q06187); test: Assay to determine activity against BTK (EZ reader, FLPeptide); assay type: biochemical; design: purchased Carna; conditions: ATP (1 mM), BTK (2 nM), room temperature for 90 minutes
T1 sequence (Q06187 whole entry): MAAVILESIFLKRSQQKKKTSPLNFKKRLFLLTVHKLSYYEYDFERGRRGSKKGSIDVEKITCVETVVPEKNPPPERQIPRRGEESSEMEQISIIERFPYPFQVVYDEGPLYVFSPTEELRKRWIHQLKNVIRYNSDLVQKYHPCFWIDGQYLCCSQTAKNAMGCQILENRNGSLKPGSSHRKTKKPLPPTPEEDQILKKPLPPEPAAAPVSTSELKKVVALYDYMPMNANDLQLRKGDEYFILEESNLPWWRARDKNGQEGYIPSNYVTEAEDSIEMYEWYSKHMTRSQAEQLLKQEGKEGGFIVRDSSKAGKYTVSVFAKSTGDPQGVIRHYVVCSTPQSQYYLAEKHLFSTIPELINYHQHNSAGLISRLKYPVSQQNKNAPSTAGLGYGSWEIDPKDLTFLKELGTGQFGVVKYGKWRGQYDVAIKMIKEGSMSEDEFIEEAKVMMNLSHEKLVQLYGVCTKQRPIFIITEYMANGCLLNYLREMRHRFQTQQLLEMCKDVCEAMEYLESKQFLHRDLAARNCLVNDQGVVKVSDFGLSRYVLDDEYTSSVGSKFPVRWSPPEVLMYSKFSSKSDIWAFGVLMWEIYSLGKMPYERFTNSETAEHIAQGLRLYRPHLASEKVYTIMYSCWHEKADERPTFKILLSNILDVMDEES
Experimental: Solutions of compounds (test or control) in DMSO were prepared at the desired concentrations, and serially diluted to 11 concentrations by 3-fold dilution in 384pp-plate using TECAN EVO200. 20 nL of stock were transferred to 384 plate using Echo550. DMSO was used as vehicle control.
Two separate solutions were prepared—an ATP solution containing MgCl2 (10 mM), Brij-35 (0.01%), DTT (2 mM), BSA (0.05%), EGTA (1 mM), HEPE (pH7.5) (50 mM), FLPeptide (6 uM) and ATP (4 mM); and a BTK solution containing MgCl2 (10 mM), Brij-35 (0.01%), DTT (2 mM), BSA (0.05%), EGTA (1 mM), HEPE (pH7.5) (50 mM) and BTK (2.67 nM). […] (Note the final volume of each well was 20 uL containing MgCl2 (10 mM), Brij-35 (0.01%), DTT (2 mM), BSA (0.05%), EGTA (1 mM), HEPE (pH7.5) (50 mM), FLPeptide (1.5 uM), ATP (1 mM) and BTK (2 nM).
The plates were incubated at room temperature for 90 minutes and then stopping buffer added (75 uL, containing 0.5 M EDTA) to terminate the reaction. Samples from each well were analyzed using EZ reader. The % remaining activity was calculated using read conversion ratio (CR) according to the equation: […]
XLFit (equation 201) was used to calculate IC50s by floating both bottom and top.
With respect to BTK activity, Table 4 lists activity as follows: • “A” denotes an IC50 of less than 10 nM, • “B” denotes an IC50 of from 10 nM to less than 100 nM; and • “C” denotes and IC50 of 100 nM or more.

BTK [3] = biological target: T1, BTK; test: Assay to determine BTK inactivation rate in human whole blood (ELISA of unoccupied BTK); assay type: cell-based; design: Human whole blood is obtained from StemExpress; tissue StemExpress; host or cells: human whole blood; conditions: 37° C., 5, 15, 30, 60 minutes; for kinact/KI: read-out: BTK hWB Kinact/Ki
Experimental: Human Whole Blood Compound Treatment and Lysis
Human whole blood is obtained from StemExpress and kept at ambient temperature until the time of the experiment. […] This is prepared fresh each experimental day. […] Compounds are reconstituted to stocks of 10 mM and are diluted in two-fold serial dilutions to generate an 8-point curve in DMSO, with the last point being DMSO only, creating a 100× dilution series. A working 10× dilution series is created using 1.0 μL of the prepared DMSO titration, 100×, into […] 1×PBS in order to keep the DMSO constant. The human whole blood is added in the volume of 225 μL per well in a new 96w v-bottom plate, where one column of eight wells is sufficient for testing one compound. For compound treatment, 25 μL of 10× dilution series in PBS is added to the 225 μL whole blood, followed by briefly pipetting up and down twice. The plates are covered with lids and incubated at 37° C. for 5, 15, 30, 60 minutes. At each timepoint, 30 μL of treated blood is pulled from each column and added to preloaded collection plates that contain 30 μL of supplemented lysis buffer and mixed briefly. The collected and lysed samples shake on rotator for 60 minutes at room temperature. These samples are used fresh for detection via ELISA, and remaining sample is frozen at −80° C. if a repeat is necessary.
ELISA: Determining Amount of Unoccupied BTK
All streptavidin pre-coated plates (R&D Systems, #CP004) are brought to room temperature while samples are lysing. Assay Buffer 1, 1×PBS+0.05% Tween 20+1% BSA is prepared and stored at 4° C. when not in use. Using this Assay Buffer, assay buffer+1× protease/phosphatase inhibitor cocktail (PICs) is prepared in the amount needed for all samples. Assay Buffer+PICs in the volume of 90 μL/well is added to the ELISA plate. Lysed blood sample (10 μL) is added to the ELISA plate. BTK recombinant protein dilutions are prepared in assay buffer+PICS for use as a μM). The standard is loaded into the ELISA plate at 100 μL/well, in duplicate. These samples and standards remain in the plate, sealed, overnight at 4° C. The following day, the plate is washed four times with 1× Wash Buffer (1×PBS+0.05% Tween 20) using a plate washer. The plate is inverted to expel all fluid each time and blotted on clean paper towels to remove remaining liquid. Assay Buffer 2 is prepared (1×PBS+0.05% Tween 20+0.05% BSA) and kept at 4° C. when not in use. […] Diluted a-BTK antibody is added at 100 μl/well. The plate is covered with adhesive film and incubated for 90 minutes at room temperature. The plate is washed four times with 1× Wash Buffer (1×PBS+0.05% Tween 20) using a plate washer. The plate is inverted to expel all fluid each time and blotted on clean paper towels to remove remaining liquid. […] The diluted antibody is added at 100 μl/well. The plate is covered with adhesive film and incubated for one hour at room temperature. The plate is washed four times with 1× Wash Buffer using a plate washer. The plate is inverted to expel all fluid each time and blotted on clean paper towels to remove remaining liquid. […] The plate is incubated at room temperature in the dark for −5-10 minutes. The reaction is stopped by adding 50 μl/well 2N sulfuric acid (H2SO4) (R&D Systems, #DY994). The plate is read in a plate reader at the wavelengths […] and 570 nm (correction wavelength). Using Graphpad Prism, an XY table+graph is created, listing 0-60 minutes as X axis and concentration as Y axis. A One Phase Decay model fit is applied to the data. Checking Results table, the K values are obtained and new XY table+graph are created. Concentration is assigned to the X axis and K values from first analysis are entered. The Michaelis-Menten equation is applied to the data.

[4] = Plasma and total brain concentrations at 1 h post a single oral administration to female C57BL/6 mice; assay type: in vivo; conditions: mouse, 1 h post single oral 10 mg/kg, LC-MS/MS, read-out: Brain:plasma ratio
Experimental: Determination of Plasma and Total Brain Concentrations at 1 h Post a Single Oral Administration of Test Compound to Female C57BL/6 Mice
The appropriate amount of test article was dissolved 10% dimethylacetamide (DMA)/90% (20% hydroxypropyl-b-cyclodextrin (HP-β-CD) w/v in water to obtain a final concentration of 1 mg/mL for oral dosing. Sonication, vortex, and homogenization was used as needed. Three female C57BL/6 mice aged 7-9 weeks (20-30 grams) were dosed by oral gavage 10 mg/kg solution of the test article.
Concentrations of representative test compounds in the plasma and brain samples (using plasma and brain homogenate standard curve for all samples appropriately) were analyzed using LC-MS/MS. With respect to the brain:plasma ratio, Table 11 lists the results as follows: • “A” denotes a ratio >0.5; • “B” denotes a ratio between 0.1 and 0.5; and • “C” denotes a ratio <0.1.

IC50 [1] [nM]	IC50 (BTK [2]) [nM]	BTK hWB Kinact/Ki (BTK [3])	Kp at 1 h [4]	kinact/KI (BTK [3]) [M⁻¹ s⁻¹]	SMILES
10 to 100	10 to 100	A (a Kinact/Ki >10×10^−4 nM^−1 min^−1)	–	–	C=CC(=O)N1CCC2CCN(c3c(F)cc(C(N)=O)c4[nH]c(C)c(C)c34)CC21 (single isomer, unassigned) [Compound 32a, 4-(1-acryloyloctahydro-6H-pyrrolo[2,3-c]pyridin-6-yl)-5-fluoro-2,3-dimethyl-1H-indole-7-carboxamide]
–	–	–	< 0.1	< 1670	CC#CC(=O)N1CCC[C@H]1c1nc(-c2ccc(C(=O)Nc3ccccn3)cc2)c2c(N)nccn12 [Acalabrutinib, reference compound]
–	–	–	< 0.1	> 16700	CC#CC(=O)N[C@H]1CCCN(c2c(F)cc(C(N)=O)c3[nH]c(C)c(C)c23)C1 [Branebrutinib, reference compound]
10 to 100	10 to 100	–	–	1670 to 16700	C=CC(=O)N1CCC[C@H](c2c(F)cc(C(N)=O)c3[nH]c(C)c(Cl)c23)C1 [Compound 2b, (R)-4-(1-acryloylpiperidin-3-yl)-3-chloro-5-fluoro-2-methyl-1H-indole-7-carboxamide]
< 10	< 10	–	–	> 16700	C=CC(=O)N1CCC=C(c2c(F)c(F)c(C(N)=O)c3[nH]c(C)c(Cl)c23)C1 [Compound 4, 4-(1-acryloyl-1,2,5,6-tetrahydropyridin-3-yl)-3-chloro-5,6-difluoro-2-methyl-1H-indole-7-carboxamide]
10 to 100	10 to 100	–	–	> 16700	C=CC(=O)N1CCC[C@H](c2c(F)c(F)c(C(N)=O)c3[nH]c(C)c(Cl)c23)C1 [Compound 15, (R)-4-(1-acryloylpiperidin-3-yl)-3-chloro-5,6-difluoro-2-methyl-1H-indole-7-carboxamide]
< 10	< 10	–	–	< 1670	C=CC(=O)N1CCc2c(cccc2-c2c(F)cc(C(N)=O)c3[nH]c(C)c(Cl)c23)C1 [Compound 20a, 4-(2-acryloyl-1,2,3,4-tetrahydroisoquinolin-5-yl)-3-chloro-5-fluoro-2-methyl-1H-indole-7-carboxamide]
< 10	< 10	–	–	1670 to 16700	CC#CC(=O)N[C@H]1C[C@H](F)CN(c2c(F)cc(C(N)=O)c3[nH]c(C)c(Cl)c23)C1 [Compound 28, 4-((3S,5S)-3-(but-2-ynamido)-5-fluoropiperidin-1-yl)-3-chloro-5-fluoro-2-methyl-1H-indole-7-carboxamide]
10 to 100	10 to 100	–	–	< 1670	C=CC(=O)N1CCC2CCN(c3c(F)cc(C(N)=O)c4[nH]c(C)c(C)c34)CC21 (centres unmarked) [Compound 32, 4-(1-acryloyloctahydro-6H-pyrrolo[2,3-c]pyridin-6-yl)-5-fluoro-2,3-dimethyl-1H-indole-7-carboxamide]
< 10	< 10	–	–	> 16700	C=CC(=O)N[C@H]1C[C@H](F)CN(c2c(F)cc(C(N)=O)c3[nH]c(C)c(C)c23)C1 [Compound 36, 4-((3S,5S)-3-acrylamido-5-fluoropiperidin-1-yl)-5-fluoro-2,3-dimethyl-1H-indole-7-carboxamide]
–	–	–	< 0.1	–	C=CC(=O)N1CCC[C@@H](n2nc(-c3ccc(Oc4ccccc4)cc3)c3c(N)ncnc32)C1 [Ibrutinib, reference compound]
